Results published in ChEMBL document CHEMBL3244053, “Structural modification study of bis(substituted aminoalkylamino)anthraquinones. An evaluation of the relationship of the [2-[(2-hydroxyethyl)amino]ethyl]amino side chain with antineoplastic activity” (1979).
Activity calls are given as the source filed them. No cut-off for these calls is given here.

Columns and labels:
B16 [1] = experiment: Antineoplastic activity against mouse B16 cells allografted in BDF1 mouse assessed as survival at 2 mg/kg qd for 9 days; format: functional, organism-based; parameters: dose 2 mg/kg
B16 [2] = experiment: Antineoplastic activity against mouse B16 cells allografted in BDF1 mouse at 2 mg/kg qd for 9 days relative to control; format: functional
B16 [3] = experiment: Antineoplastic activity against mouse B16 cells allografted in BDF1 mouse assessed as survival at 1 mg/kg qd for 9 days; format: functional, organism-based; parameters: dose 1 mg/kg
B16 [4] = experiment: Antineoplastic activity against mouse B16 cells allografted in BDF1 mouse at 1 mg/kg qd for 9 days relative to control; format: functional
L1210 [5] = experiment: Antineoplastic activity against mouse L1210 cells allografted in CDF1 mouse assessed as survival at 4 mg/kg qd for 9 days; format: functional, organism-based; parameters: dose 4 mg/kg
L1210 [6] = experiment: Antineoplastic activity against mouse L1210 cells allografted in CDF1 mouse at 4 mg/kg qd for 9 days relative to control; format: functional
L1210 [7] = experiment: Antineoplastic activity against mouse L1210 cells allografted in CDF1 mouse assessed as survival at 2 mg/kg qd for 9 days; format: functional, organism-based; parameters: dose 2 mg/kg
L1210 [8] = experiment: Antineoplastic activity against mouse L1210 cells allografted in CDF1 mouse at 2 mg/kg qd for 9 days relative to control; format: functional
P388 [9] = experiment: Antineoplastic activity against mouse P388 cells allografted in CDF1 mouse assessed as survival at 2 mg/kg qd for 9 days; format: functional, organism-based; parameters: dose 2 mg/kg
P388 [10] = experiment: Antineoplastic activity against mouse P388 cells allografted in CDF1 mouse at 2 mg/kg qd for 9 days relative to control; format: functional
P388 [11] = experiment: Antineoplastic activity against mouse P388 cells allografted in CDF1 mouse assessed as survival at 1 mg/kg qd for 9 days; format: functional, organism-based; parameters: dose 1 mg/kg
P388 [12] = experiment: Antineoplastic activity against mouse P388 cells allografted in CDF1 mouse at 1 mg/kg qd for 9 days relative to control; format: functional
B16 [13] = experiment: Antineoplastic activity against mouse B16 cells allografted in BDF1 mouse assessed as survival at 16 mg/kg qd for 9 days; format: functional, organism-based; parameters: dose 16 mg/kg
B16 [14] = experiment: Antineoplastic activity against mouse B16 cells allografted in BDF1 mouse at 16 mg/kg qd for 9 days relative to control; format: functional
B16 [15] = experiment: Antineoplastic activity against mouse B16 cells allografted in BDF1 mouse assessed as survival at 8 mg/kg qd for 9 days; format: functional, organism-based; parameters: dose 8 mg/kg
B16 [16] = experiment: Antineoplastic activity against mouse B16 cells allografted in BDF1 mouse at 8 mg/kg qd for 9 days relative to control; format: functional
B16 [17] = experiment: Antineoplastic activity against mouse B16 cells allografted in BDF1 mouse assessed as survival at 4 mg/kg qd for 9 days; format: functional, organism-based; parameters: dose 4 mg/kg
B16 [18] = experiment: Antineoplastic activity against mouse B16 cells allografted in BDF1 mouse at 4 mg/kg qd for 9 days relative to control; format: functional
Colon 26 [19] = experiment: Antineoplastic activity against mouse Colon 26 cells allografted in CDF1 mouse assessed as survival at 8 mg/kg qd for 9 days; format: functional, organism-based; parameters: dose 8 mg/kg
Colon 26 [20] = experiment: Antineoplastic activity against mouse Colon 26 cells allografted in CDF1 mouse at 8 mg/kg qd for 9 days relative to control; format: functional
Colon 26 [21] = experiment: Antineoplastic activity against mouse Colon 26 cells allografted in CDF1 mouse assessed as survival at 4 mg/kg qd for 9 days; format: functional, organism-based; parameters: dose 4 mg/kg
Colon 26 [22] = experiment: Antineoplastic activity against mouse Colon 26 cells allografted in CDF1 mouse at 4 mg/kg qd for 9 days relative to control; format: functional
Colon 26 [23] = experiment: Antineoplastic activity against mouse Colon 26 cells allografted in CDF1 mouse assessed as survival at 2 mg/kg qd for 9 days; format: functional, organism-based; parameters: dose 2 mg/kg
Colon 26 [24] = experiment: Antineoplastic activity against mouse Colon 26 cells allografted in CDF1 mouse at 2 mg/kg qd for 9 days relative to control; format: functional
L1210 [25] = experiment: Antineoplastic activity against mouse L1210 cells allografted in CDF1 mouse assessed as survival at 16 mg/kg qd for 9 days; format: functional, organism-based; parameters: dose 16 mg/kg
L1210 [26] = experiment: Antineoplastic activity against mouse L1210 cells allografted in CDF1 mouse at 16 mg/kg qd for 9 days relative to control; format: functional
L1210 [27] = experiment: Antineoplastic activity against mouse L1210 cells allografted in CDF1 mouse assessed as survival at 8 mg/kg qd for 9 days; format: functional, organism-based; parameters: dose 8 mg/kg
L1210 [28] = experiment: Antineoplastic activity against mouse L1210 cells allografted in CDF1 mouse at 8 mg/kg qd for 9 days relative to control; format: functional
P388 [29] = experiment: Antineoplastic activity against mouse P388 cells allografted in CDF1 mouse assessed as survival at 16 mg/kg qd for 9 days; format: functional, organism-based; parameters: dose 16 mg/kg
P388 [30] = experiment: Antineoplastic activity against mouse P388 cells allografted in CDF1 mouse at 16 mg/kg qd for 9 days relative to control; format: functional
P388 [31] = experiment: Antineoplastic activity against mouse P388 cells allografted in CDF1 mouse assessed as survival at 8 mg/kg qd for 9 days; format: functional, organism-based; parameters: dose 8 mg/kg
P388 [32] = experiment: Antineoplastic activity against mouse P388 cells allografted in CDF1 mouse at 8 mg/kg qd for 9 days relative to control; format: functional
P388 [33] = experiment: Antineoplastic activity against mouse P388 cells allografted in CDF1 mouse assessed as survival at 4 mg/kg qd for 9 days; format: functional, organism-based; parameters: dose 4 mg/kg
P388 [34] = experiment: Antineoplastic activity against mouse P388 cells allografted in CDF1 mouse at 4 mg/kg qd for 9 days relative to control; format: functional

Question: `O=C1c2ccccc2C(=O)c2c(NCCNCCO)ccc(NCCNCCO)c21` [AMETANTRONE] was tested. Which Activity (B16 [1]) did it give?
Answer: Active

Question: What about the T/C (B16 [2]) of the same molecule?
Answer: 172%

Question: And the Activity (B16 [3])?
Answer: Active

Question: And the T/C (B16 [4])?
Answer: 151%

Question: What about the Activity (L1210 [5]) of the same molecule?
Answer: Active

Question: What about the T/C (L1210 [6]) of the same molecule?
Answer: 193%

Question: And the Activity (L1210 [7])?
Answer: Active

Question: And the T/C (L1210 [8])?
Answer: 180%

Question: What about the Activity (P388 [9]) of the same molecule?
Answer: Active

Question: And the T/C (P388 [10])?
Answer: 200%

Question: What about the Activity (P388 [11]) of the same molecule?
Answer: Active

Question: What about the T/C (P388 [12]) of the same molecule?
Answer: 155%

Question: And the Activity (B16 [13])?
Answer: Active

Question: What about the T/C (B16 [14]) of the same molecule?
Answer: 225%

Question: What about the Activity (B16 [15]) of the same molecule?
Answer: Active

Question: And the T/C (B16 [16])?
Answer: 204%

Question: And the Activity (B16 [17])?
Answer: Active

Question: And the T/C (B16 [18])?
Answer: 194%

Question: And the Activity (Colon 26 [19])?
Answer: Active

Question: And the T/C (Colon 26 [20])?
Answer: 201%

Question: What about the Activity (Colon 26 [21]) of the same molecule?
Answer: Active

Question: And the T/C (Colon 26 [22])?
Answer: 177%

Question: What about the Activity (Colon 26 [23]) of the same molecule?
Answer: Active

Question: And the T/C (Colon 26 [24])?
Answer: 132%

Question: What about the Activity (L1210 [25]) of the same molecule?
Answer: Active

Question: What about the T/C (L1210 [26]) of the same molecule?
Answer: 234%

Question: And the Activity (L1210 [27])?
Answer: Active

Question: And the T/C (L1210 [28])?
Answer: 288%

Question: What about the Activity (P388 [29]) of the same molecule?
Answer: Active

Question: And the T/C (P388 [30])?
Answer: 321%

Question: And the Activity (P388 [31])?
Answer: Active

Question: And the T/C (P388 [32])?
Answer: 254%

Question: What about the Activity (P388 [33]) of the same molecule?
Answer: Active

Question: What about the T/C (P388 [34]) of the same molecule?
Answer: 219%
